Test results reported in patent EP4799647A1, “CAMPTOTHECIN DRUG CONJUGATE, AND PREPARATION METHOD THEREFOR AND USE THEREOF” (Shanghai Qilu Pharmaceutical Research and Development …, priority 2023, dated 2025).

Tests used:
Assay in all cases: Cell inhibitory activity experiment (CellTiter-Glo, 72 hours)
Format in all cases: cell-based
AsPC-1 = settings: Homo sapiens, ASPC1; AsPC-1, 72 hours
Method: (§1) • a) All cell lines were cultured in complete medium at 37 °C under 5% CO2. • b) Cells in logarithmic growth phase were collected and counted by a […]. The cell viability was detected by trypan blue exclusion method, and guaranteed to be over 90%. • c) The cell density was adjusted with a complete medium. Subsequently, 80 µL of cell suspension was seeded into each well of a 96-well cell culture plate according to 3000 cells per well. • d) The cells in the 96-well plate were cultured at 37°C under 5% CO2. • e) 10× drug solution was prepared. […] The working concentration of the test compound was 5 µM. For the test group, 10 µL of serially diluted test compound was transferred into the corresponding experimental well of 96-well cell culture plate, and added with 10 µL of diluent containing an equal amount of DMSO (1%), and three replicate wells were set up for each drug concentration. Control wells were added with corresponding volumes of diluent. • f) The cells in the 96-well plate added with the drug were continuously cultured at 37°C under 5% CO2 for 72 hours. • g) CTG reagent (CellTiter-Glo® Luminescent Cell Viability Assay, purchased from Promega, Cat. No. G7571) was thawed, and the cell culture plate was equilibrated to room temperature for 30 minutes. • h) 100 µL of CTG solution was added into each well. • i) The plate was shaken on an orbital shaker for 5 minutes to induce cell lysis. • j) The cell culture plate was placed at room temperature for 20 minutes to stabilize luminescent signals. • k) Luminescence intensities were read, and data were collected. • l) The data were analyzed by using GraphPad Prism 7.0 software, non-linear S-curve regression was applied to fit the data for generating dose-response curves, and IC50 values were calculated accordingly. Specific experimental results were shown in Table 4. [formula] Table 4 Cell inhibitory activities of payload compounds in the present invention

COLO320DM = settings: Homo sapiens, COLO 320DM
Method: as §1

A549 = settings: Homo sapiens; A549, 72 hours
Method: as §1

SK-OV-3 = settings: Homo sapiens; SK-OV-3, 72 hours
Method: as §1

COLO205 = settings: Homo sapiens, COLO 205; COLO205, 72 hours
Method: as §1

HT29 = settings: Homo sapiens, HT-29; HT29, 72 hours
Method: as §1

HCT15 = settings: Homo sapiens, HCT-15; HCT15, 72 hours
Method: as §1

Row | SMILES | IC50 (AsPC-1) | IC50 (COLO320DM) | IC50 (A549) | IC50 (SK-OV-3) | IC50 (COLO205) | IC50 (HT29) | IC50 (HCT15)
1 | CC[C@@]1(O)C(=O)OCc2c1cc1n(c2=O)Cc2c-1nc1cc(F)c(F)cc1c2CO [C1-5, (4S)-4-ethyl-8,9-difluoro-4-hydroxy-11-(hydroxymethyl)-3,4,12,14-tetrahydro-1H-pyrano[3', 4':6,7]indolizino[1,2-b]quinolin-3,14-dione] | 1120 nM | 196 nM | 21.1 nM | 79.5 nM | 24.3 nM | 144 nM | 142 nM
2 | CC[C@@]1(O)C(=O)OCc2c1cc1n(c2=O)Cc2c-1nc1cc(F)c(C)c3c1c2[C@@H](NC(=O)CO)CC3 [DXd] | 3100 nM | 575 nM | 104 nM | 288 nM | 95.5 nM | 344 nM | 889 nM
3 | CCc1c2c(nc3ccc(O)cc13)-c1cc3c(c(=O)n1C2)COC(=O)[C@]3(O)CC [SN-38] | > 10000 nM | 1420 nM | 66.5 nM | 168 nM | 89.6 nM | 287 nM | 313 nM
